Measured values taken from PMC4097363, “Trace amines inhibit insect odorant receptor function through antagonism of the co-receptor subunit” (F1000Research, 2014).
“Also recorded” adds a separate entry of the source.

Tests used:
[1] = target: T1, Agam\Orco (Anopheles gambiae, UniProt Q7QCC7); assay: Antagonism of OLC12 activation of Orco in Xenopus oocytes; format: cell-based; conditions: 30µM OLC12, 10µM tryptamine
T1 sequence (Q7QCC7 1-478): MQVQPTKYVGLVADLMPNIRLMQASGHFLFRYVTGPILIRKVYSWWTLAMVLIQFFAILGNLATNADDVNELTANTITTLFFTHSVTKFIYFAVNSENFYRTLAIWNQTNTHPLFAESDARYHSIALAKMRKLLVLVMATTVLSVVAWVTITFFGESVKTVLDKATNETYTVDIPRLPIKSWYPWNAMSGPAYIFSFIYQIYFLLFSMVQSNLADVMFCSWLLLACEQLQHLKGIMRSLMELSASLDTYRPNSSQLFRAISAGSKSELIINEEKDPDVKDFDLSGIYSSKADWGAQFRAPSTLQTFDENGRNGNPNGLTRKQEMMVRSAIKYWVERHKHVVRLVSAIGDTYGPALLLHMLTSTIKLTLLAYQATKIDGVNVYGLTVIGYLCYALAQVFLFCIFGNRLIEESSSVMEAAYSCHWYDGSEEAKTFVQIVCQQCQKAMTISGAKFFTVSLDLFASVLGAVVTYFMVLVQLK
Experimental: (§1) Follicle cells were removed by treatment with collagenase B (Boehringer Mannheim) for 2 hours at room temperature. Capped cRNA encoding each OR subunit was generated using mMessage mMachine kits (Ambion). For heteromeric ORs, 25 ng of cRNA encoding each OR subunit was injected into Stage V-VI Xenopus oocytes. For expression of Orco homomers, 50 ng of cRNA was injected. Oocytes were incubated at 18°C in Barth's saline (in mM: 88 NaCl, 1 KCl, 2.4 NaHCO 3, 0.3 CaNO 3, 0.41 CaCl 2, 0.82 MgSO 4, 15 HEPES, pH 7.6, and 150µg/ml ceftazidime) for 2–5 days prior to electrophysiological recording.
(§2) Odorant and Orco ligand induced currents were recorded under two-electrode voltage clamp, using an automated parallel electrophysiology system (OpusExpress 6000A, Molecular Devices). Oocytes were perfused with ND96 (in mM: 96 NaCl, 2 KCl, 1 CaCl 2, 1 MgCl 2, 5 HEPES, pH 7.5). Orco ligands were prepared as 50 or 100 mM stock solutions in DMSO and then diluted into ND96 on the day of the experiment. Odorants were prepared as 100 mM stock solutions in DMSO and then diluted into ND96. Unless otherwise noted, applications were for 60 sec at a flow rate of 1.0 ml/min, with extensive washing in ND96 at 4.6 ml/min between applications. Micropipettes were filled with 3 M KCl and had resistances of 0.2–2.0 MΩ. The holding potential was -70 mV. […]

[2] = target: T2, Agam\Orco+Agam\Or48 (Anopheles gambiae, UniProt Q7QCC7); assay: Inhibition of odorant activation of heteromeric OR in Xenopus oocytes; format: cell-based; conditions: activated by 3µM 2-nonanone; 10µM tryptamine or 100µM tyramine
T2 sequence (Q7QCC7 1-478): T1 sequence (Q7QCC7 1-478)
Experimental: as §1, §2

[3] = test system: Onub\Orco+Onub\Or6; assay: as above; format: cell-based, Ostrinia nubilalis; conditions: activated by 1µM Z11-14:OAc; 10µM tryptamine or 100µM tyramine
Experimental: as §1, §2

[4] = target: Agam\Orco+Agam\Or65 (Anopheles gambiae, UniProt Q7QCC7); assay: as above; format: cell-based; conditions: for IC50: IC 50 for inhibition of responses to eugenol; for inhibition of odorant activation of the OR: activated by 100nM eugenol, 10µM tryptamine or 100µM tyramine
Experimental: as §1
Odorant and Orco ligand induced currents were recorded under two-electrode voltage clamp, using an automated parallel electrophysiology system (OpusExpress 6000A, Molecular Devices). Oocytes were perfused with ND96 (in mM: 96 NaCl, 2 KCl, 1 CaCl 2, 1 MgCl 2, 5 HEPES, pH 7.5). Orco ligands were prepared as 50 or 100 mM stock solutions in DMSO and then diluted into ND96 on the day of the experiment. Odorants were prepared as 100 mM stock solutions in DMSO and then diluted into ND96. Unless otherwise noted, applications were for 60 sec at a flow rate of 1.0 ml/min, with extensive washing in ND96 at 4.6 ml/min between applications. Micropipettes were filled with 3 M KCl and had resistances of 0.2–2.0 MΩ. The holding potential was -70 mV. Current responses, filtered (4-pole, Bessel, low pass) at 20 Hz (-3 db) and sampled at 100 Hz, were captured and stored using OpusXpress 1.1 software (Molecular Devices).
To measure inhibition of odorant activation of heteromeric ORs ( Figures 4B, 4C, Figure 5B and Figure 6), oocytes were exposed to a 30 sec application of odorant followed by a 10 min wash. Oocytes were then exposed to a 90 sec application of tryptamine or tyramine, immediately followed by a 30 sec co-application of tryptamine or tyramine and odorant. The current response in the presence of antagonist candidate was compared to the preceding response to odorant alone and expressed as a percentage. […] For this reason, we then re-normalized antagonism data to the value obtained when the assay was run in the absence of antagonist candidate (sham). In the “sham” assay, oocytes were exposed to a 30 sec application of odorant followed by a 10 min wash and then exposed to a 90 sec application of ND96 (no antagonist candidate), immediately followed by a 30 sec application of odorant. The second odorant response was compared to the first response and expressed as a percentage. In Figure 4B, 4C, Figure 5B and Figure 6, the sham value for 100nM eugenol was 57 ± 3% (mean ± SEM, n = 3). In Figure 5B, the sham value for 10nM eugenol was 93 ± 4% (n = 4). In Figure 4B and C, the sham value for 1µM Z11-14:OAc was 82 ± 6% (n = 6) and the sham value for 150µM 2-phenylethanol was 92 ± 2% (n = 3). In Figure 6, the sham value for 3µM L-fenchone was 83 ± 1% (n = 3), the sham value for 40µM acetophenone was 92 ± 1% (n = 3), the sham value for 70µM geranyl acetate was 97 ± 1% (n = 3), the sham value for 10µM 6-methyl-5-hepten-2-one was 94 ± 2% (n = 3) and the sham value for 3µM 2-nonanone was 81 ± 1% (n = 3).
Initial analysis of electrophysiological data was done using Clampfit 9.1 software (Molecular Devices). Curve fitting and statistical analyses were done using Prism 5 (Graphpad). […]

SMILES | inhibition of OLC12 activation of Orco [1] | inhibition of odorant activation of the OR [2] | inhibition of odorant activation of the OR [3] | mechanism of inhibition of odorant activation ([4]; Agam\Orco+Agam\Or65, 10nM vs 100nM eugenol) | IC50 ([4]; Agam\Orco+Agam\Or65, 10nM eugenol) | IC50 ([4]; Agam\Orco+Agam\Or65, 100nM eugenol) | inhibition of odorant activation of the OR [4]
NCCc1c[nH]c2ccccc12 [tryptamine] | inhibited OLC12 activation of Orco from each of these three insect species | able to inhibit odorant activation of the receptor | substantial inhibition of each receptor | non-competitively inhibits odorant activation | 3.1 ± 0.4 µM | 3.2 ± 0.3 µM | substantial inhibition of each receptor; also recorded: able to inhibit odorant activation of the receptor
NCCc1ccc(O)cc1 [tyramine] | – | able to inhibit odorant activation of each of these receptors, but was less effective than tryptamine | able to reduce odorant activation of these ORs, but was less effective than tryptamine | – | – | – | able to reduce odorant activation of these ORs, but was less effective than tryptamine; also recorded: able to inhibit odorant activation of each of these receptors, but was less effective than tryptamine
